Starred links: 1 amine or outer side, 2 acyl side, 3 side chain; linkers in the order of their positions; H or OH if unused. Positions of bridges follow the written chain, without caps; N, C: chain ends. Non-standard residues stand in square brackets, D forms with d. Residues, ends and D or L forms follow the SMILES beside them. X2 = COC(=O)CCCCCCCCCCCCCCCCC(=O)N[C@@H](CCC(=O)NCCOCCOCCOCCOCCOCCOCCOCCOCCOCCOCCOCCn1cc(C[C@H](NC(=N)CNC(=O)[C@H](CSCC(=O)[*:1])NC(=N)[C@H](CC(C)C)N[*:2])C(=O)OC)nn1)C(=O)OC; Ala(1-CH2COOH-inden-3-yl) = N[C@@H](CC1=CC(CC(=O)O)c2ccccc21)C(=O)O; Hyp = O=C(O)[C@@H]1C[C@@H](O)CN1; NMeNle = CCCC[C@H](NC)C(=O)O; NMeA = CN[C@@H](C)C(=O)O; Dab = NCC[C@H](N)C(=O)O; Dap = NC[C@H](N)C(=O)O

Consider ten compounds from patent publication US20240261367A1, “CYCLIC PEPTIDE IMMUNOMODULATORS” (priority 2021, published 2024).

The test deals with T1, PD-1/PD-L1 (Homo sapiens, UniProt Q9NZQ7).
T1 construct: TVMV protease site linker (C); made in house; host or cells: HEK293T cells
T1 sequence (Q9NZQ7 18-239): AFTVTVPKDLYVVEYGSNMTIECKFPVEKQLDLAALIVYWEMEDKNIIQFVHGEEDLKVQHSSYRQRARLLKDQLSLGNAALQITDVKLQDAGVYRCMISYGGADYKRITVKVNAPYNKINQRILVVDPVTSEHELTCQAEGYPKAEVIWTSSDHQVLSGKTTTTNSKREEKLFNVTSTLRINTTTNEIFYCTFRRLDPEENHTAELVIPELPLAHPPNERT
As to the kind of experiment: PD-1/PD-L1 Homogenous Time-Resolved Fluorescence (HTRF) binding assay. The note with it: PD-L1-His (10 nM) pre-incubated with inhibitor 15 m, then PD-1-Ig (20 nM). The source says: Methods for Testing the Ability of Macrocyclic Peptides to Compete for the Binding of PD-1 to PD-L1 Using Homogenous Time-Resolved Fluorescence (HTRF) Binding Assays
The ability of the compounds of formula (I) to bind to PD-L1 was investigated using a PD-1/PD-L1 Homogenous Time-Resolved Fluorescence (HTRF) binding assay.
Homogenous Time-Resolved Fluorescence (HTRF) Binding Assay
The interaction of PD-1 and PD-L1 can be assessed using soluble, purified preparations of the extracellular domains of the two proteins. The PD-1 and PD-L1 protein extracellular domains were expressed as fusion proteins with detection tags, for PD-1, the tag was the Fc portion of Immunoglobulin (PD-1-Ig) and for PD-L1 it was the 6 histidine motif (PD-L1-His). All binding studies were performed in an HTRF assay buffer consisting of dPBS supplemented with 0.1% […] bovine serum albumin and 0.05% (v/v) Tween-20. […] HTRF detection was achieved using europium crypate-labeled anti-Ig (1 nM final) and allophycocyanin (APC) labeled anti-His (20 nM final). Antibodies were diluted in HTRF detection buffer and 5 μl was dispensed on top of the binding reaction. The reaction mixture was allowed to equilibrate for 30 minutes and the resulting signal (665 nm/620 nm ratio) was obtained using an EnVision fluorometer. Additional binding assays were established between the human proteins PD-1-Ig/PD-L2-His (20 & 5 nM, respectively) and CD80-His/PD-L1-Ig (100 & 10 nM, respectively).
Recombinant Proteins: Human PD-1 (25-167) with a C-terminal human Fc domain of immunoglobulin G (Ig) epitope tag [hPD-1 (25-167)-3S-IG] and human PD-L1 (18-239) with a C-terminal His epitope tag [hPD-L1(18-239)-TVMV-His] were expressed in HEK293T cells and purified sequentially by ProteinA affinity chromatography and size exclusion chromatography. Human PD-L2-His and CD80-His was obtained through commercial sources.
Table 1 lists the IC50 values for representative examples of this disclosure measured in the PD-1/PD-L1 Homogenous Time-Resolved Fluorescence (HTRF) binding assay.
Background: TR-FRET usually uses a lanthanide donor and a delayed reading to cut background.
As a reminder, the IC50 is the point on the concentration scale where inhibition reaches its midpoint. Read a high IC50 as weaker potency. Turning to `C#CCOC(=O)NC[C@@H]1NC(=O)[C@@H]2CCCN2C(=O)[C@H](CC(N)=O)NC(=O)[C@H](C)N(C)C(=O)[C@H](Cc2ccc(O)cc2)NC(=O)CSC[C@@H](C(=O)NCC(=O)N[C@@H](Cc2cn(CCOCCOCCOCCOCCOCCOCCOCCOCCOCCOCCOCCNC(=O)CC[C@H](NC(=O)CCCCCCCCCCCCCCCCC(=O)O)C(=O)O)nn2)C(=O)O)NC(=O)[C@H](CC(C)C)NC(=O)[C@H](CCCC)N(C)C(=O)[C@H](CCCC)N(C)C(=O)[C@H](CC2=CC(CC(=O)O)c3ccccc32)NC(=O)[C@H](CCN)NC(=O)[C@H](Cc2c[nH]c3ccccc23)NC(=O)[C@@H]2C[C@@H](O)CN2C(=O)[C@H](CC(C)C)NC1=O` (stereo partly shown) [Example 1010], the IC50 amounted to 0.01 µM.
On to `CCCC[C@H]1C(=O)N(C)[C@@H](CCCC)C(=O)N[C@@H](CC(C)C)C(=O)N[C@H](C(=O)NCC(=O)N[C@@H](Cc2cn(CCOCCOCCOCCOCCOCCOCCOCCOCCOCCOCCOCCNC(=O)CC[C@H](NC(=O)CCCCCCCCCCCCCCCCC(=O)OC)C(=O)OC)nn2)C(=O)O)CSCC(=O)N[C@@H](Cc2ccc(O)cc2)C(=O)N(C)[C@@H](C)C(=O)N[C@@H](CC(N)=O)C(=O)N2CCC[C@H]2C(=O)N[C@@H](CN)C(=O)N[C@@H](CC(C)C)C(=O)N2C[C@H](O)C[C@H]2C(=O)N[C@@H](Cc2c[nH]c3ccccc23)C(=O)N[C@@H](CCN)C(=O)N[C@@H](CC2=CC(CC(=O)O)c3ccccc32)C(=O)N1C` (stereo partly shown) [Example 1011], for which the IC50 was 0.011 µM.
Compound `CCCC[C@H]1C(=O)N(C)[C@@H](CCCC)C(=O)N[C@@H](CC(C)C)C(=N)N[C@H](C(=O)NCC(=N)N[C@@H](Cc2cn(CCOCCOCCOCCOCCOCCOCCOCCOCCOCCOCCOCCNC(=O)CC[C@H](NC(=O)CCCCCCCCCCCCCCCCC(=O)OC)C(=O)OC)nn2)C(=O)OC)CSCC(=O)N[C@@H](Cc2ccc(O)cc2)C(=O)N(C)[C@@H](C)C(=O)N[C@@H](CC(N)=O)C(=O)N2CCC[C@H]2C(=O)N[C@@H](CN)C(=O)N[C@@H](CC(C)C)C(=O)N2C[C@H](O)C[C@H]2C(=O)N[C@@H](Cc2c[nH]c3ccccc23)C(=O)N[C@@H](CCN)C(=O)N[C@@H](CC2=CC(CC(=O)O)c3ccccc32)C(=O)N1C` (stereo partly shown) [Example 1012] (Y[NMeA]NP[Dap]L[Hyp]W[Dab][Ala(1-CH2COOH-inden-3-yl)][NMeNle][NMeNle]; linker N-C via X2) came in with an IC50 of 0.011 µM.
Compound `CCCC[C@H]1C(=O)N(C)[C@@H](CCCC)C(=O)N[C@@H](CC(C)C)C(=O)N[C@H](C(=O)NCC(=O)N[C@@H](Cc2cn(CCOCCOCCOCCOCCOCCOCCOCCOCCOCCOCCOCCNC(=O)CC[C@H](NC(=O)CCCCCCCCCCCCCCCCC(=O)O)C(=O)O)nn2)C(=O)O)CSCC(=O)N[C@@H](Cc2ccc(O)cc2)C(=O)N(C)[C@@H](C)C(=O)N[C@@H](CC(N)=O)C(=O)N2CCC[C@H]2C(=O)N[C@@H](CNC(=O)OCCC)C(=O)N[C@@H](CC(C)C)C(=O)N2C[C@H](O)C[C@H]2C(=O)N[C@@H](Cc2c[nH]c3ccccc23)C(=O)N[C@@H](CCN)C(=O)N[C@@H](CC2=CC(CC(=O)O)c3ccccc32)C(=O)N1C` (stereo partly shown) [Example 1013] registered an IC50 of 0.0093 µM.
`CCCC[C@H]1C(=O)N(C)[C@@H](CCCC)C(=O)N[C@@H](CC(C)C)C(=O)N[C@H](C(=O)NCC(=O)N[C@@H](Cc2cn(CCOCCOCCOCCOCCOCCOCCOCCOCCOCCOCCOCCNC(=O)CC[C@H](NC(=O)CCCCCCCCCCCCCCCCC(=O)O)C(=O)O)nn2)C(=O)O)CSCC(=O)N[C@@H](Cc2ccc(O)cc2)C(=O)N(C)[C@@H](C)C(=O)N[C@@H](CC(N)=O)C(=O)N2CCC[C@H]2C(=O)N[C@@H](CNC(=O)OCC(C)C)C(=O)N[C@@H](CC(C)C)C(=O)N2C[C@H](O)C[C@H]2C(=O)N[C@@H](Cc2c[nH]c3ccccc23)C(=O)N[C@@H](CCN)C(=O)N[C@@H](CC2=CC(CC(=O)O)c3ccccc32)C(=O)N1C` (stereo partly shown) [Example 1014] registered an IC50 of 0.0031 µM.
`CCCC[C@H]1C(=O)N(C)[C@@H](CCCC)C(=O)N[C@@H](CC(C)C)C(=O)N[C@H](C(=O)NCC(=O)N[C@@H](Cc2cn(CCOCCOCCOCCOCCOCCOCCOCCOCCOCCOCCOCCNC(=O)CC[C@H](NC(=O)CCCCCCCCCCCCCCCCC(=O)O)C(=O)O)nn2)C(=O)O)CSCC(=O)N[C@@H](Cc2ccc(O)cc2)C(=O)N(C)[C@@H](C)C(=O)N[C@@H](CC(N)=O)C(=O)N2CCC[C@H]2C(=O)N[C@@H](CNC(=O)OC)C(=O)N[C@@H](CC(C)C)C(=O)N2C[C@H](O)C[C@H]2C(=O)N[C@@H](Cc2c[nH]c3ccccc23)C(=O)N[C@@H](CCN)C(=O)N[C@@H](CC2=CC(CC(=O)O)c3ccccc32)C(=O)N1C` (stereo partly shown) [Example 1016] came in with an IC50 of 0.013 µM.
The value for `CCCC[C@H]1C(=O)N(C)[C@@H](CCCC)C(=O)N[C@@H](CC(C)C)C(=O)N[C@H](C(=O)NCC(=O)N[C@@H](Cc2cn(CCOCCOCCOCCOCCOCCOCCOCCOCCOCCOCCOCCNC(=O)CC[C@H](NC(=O)CCCCCCCCCCCCCCCCC(=O)O)C(=O)O)nn2)C(=O)O)CSCC(=O)N[C@@H](Cc2ccc(O)cc2)C(=O)N(C)[C@@H](C)C(=O)N[C@@H](CC(N)=O)C(=O)N2CCC[C@H]2C(=O)N[C@@H](CNC(=O)OC)C(=O)N[C@@H](CC(C)C)C(=O)N2C[C@H](O)C[C@H]2C(=O)N[C@@H](Cc2c[nH]c3ccccc23)C(=O)N[C@@H](CCNC(=O)OC)C(=O)N[C@@H](CC2=CC(CC(=O)O)c3ccccc32)C(=O)N1C` (stereo partly shown) [Example 1019] was 0.0063 µM; that for `CCCC[C@H]1C(=O)N(C)[C@@H](CCCC)C(=O)N[C@@H](CC(C)C)C(=O)N[C@H](C(=O)NCC(=O)N[C@@H](Cc2cn(CCOCCOCCOCCOCCOCCOCCOCCOCCOCCOCCOCCNC(=O)CC[C@H](NC(=O)CCCCCCCCCCCCCCCCC(=O)O)C(=O)O)nn2)C(=O)O)CSCC(=O)N[C@@H](Cc2ccc(O)cc2)C(=O)N(C)[C@@H](C)C(=O)N[C@@H](CC(N)=O)C(=O)N2CCC[C@H]2C(=O)N[C@@H](CNC(=O)OCc2oc(=O)oc2C)C(=O)N[C@@H](CC(C)C)C(=O)N2C[C@H](O)C[C@H]2C(=O)N[C@@H](Cc2c[nH]c3ccccc23)C(=O)N[C@@H](CCN)C(=O)N[C@@H](CC2=CC(CC(=O)O)c3ccccc32)C(=O)N1C` (stereo partly shown) [Example 1021] was 0.027 µM.
The compound `CCCC[C@H]1C(=O)N(C)[C@@H](CCCC)C(=O)N[C@@H](CC(C)C)C(=O)N[C@H](C(=O)NCC(=O)N[C@@H](Cc2cn(CCOCCOCCOCCOCCOCCOCCOCCOCCOCCOCCOCCNC(=O)CC[C@H](NC(=O)CCCCCCCCCCCCCCCCC(=O)O)C(=O)O)nn2)C(=O)O)CSCC(=O)N[C@@H](Cc2ccc(O)cc2)C(=O)N(C)[C@@H](C)C(=O)N[C@@H](CC(N)=O)C(=O)N2CCC[C@H]2C(=O)N[C@@H](CNC(=O)OCc2oc(=O)oc2C)C(=O)N[C@@H](CC(C)C)C(=O)N2C[C@H](O)C[C@H]2C(=O)N[C@@H](Cc2c[nH]c3ccccc23)C(=O)N[C@@H](CCNC(=O)CCc2oc(=O)oc2C)C(=O)N[C@@H](CC2=CC(CC(=O)O)c3ccccc32)C(=O)N1C` (stereo partly shown) [Example 1022] had an IC50 of 0.0068 µM.
Compound `CCCC[C@H]1C(=O)N(C)[C@@H](CCCC)C(=O)N[C@@H](CC(C)C)C(=O)N[C@H](C(=O)NCC(=O)N[C@@H](Cc2cn(CCOCCOCCOCCOCCOCCOCCOCCOCCOCCOCCOCCNC(=O)CC[C@H](NC(=O)CCCCCCCCCCCCCCCCC(=O)O)C(=O)OCC)nn2)C(=O)O)CSCC(=O)N[C@@H](Cc2ccc(O)cc2)C(=O)N(C)[C@@H](C)C(=O)N[C@@H](CC(N)=O)C(=O)N2CCC[C@H]2C(=O)N[C@@H](CN)C(=O)N[C@@H](CC(C)C)C(=O)N2C[C@H](O)C[C@H]2C(=O)N[C@@H](Cc2c[nH]c3ccccc23)C(=O)N[C@@H](CCN)C(=O)N[C@@H](CC2=CC(CC(=O)O)c3ccccc32)C(=O)N1C` (stereo partly shown) [Example 1024] yielded a concentration for half-maximal inhibition (IC50) of 0.013 µM.
